Measurements published in ChEMBL document CHEMBL5226298, “Chemoenzymatic Synthesis of 5-Methylpsilocybin: A Tryptamine with Potential Psychedelic Activity” (2021).

Experiments:
[1] = tested on: Mus musculus; assay: Induction of psychedelics activity in mouse assessed as head-twitch response at upto 10 mg/kg, ip measured for 30 min; assay type: functional; conditions: 0.5 h
[2] = tested on: Mus musculus; assay: Induction of psychedelics activity in C57BL/6J mouse assessed as head-twitch response at upto 10 mg/kg, ip measured for 30 min; assay type: functional; conditions: 0.5 h

Row | SMILES | ED50 [1] [mg/kg] | ED50 [2] [µmol/kg]
1 | Cc1ccc2[nH]cc(CCN(C)C)c2c1OP(=O)(O)O | 1.23 | 
2 | CN(C)CCc1c[nH]c2ccccc12 [N,N-DIMETHYLTRYPTAMINE] |  | 5.05
